{"source": "paper PMC6257630", "about": "“Photoactivatable Cell-Selective Dinuclear trans-Diazidoplatinum(IV) Anticancer Prodrugs” (Inorganic Chemistry, 2018)", "key": {"[1]": {"test_system": "A2780 ovarian carcinoma cells", "conditions": "for IC50: 1 h incubation, 24 h recovery"}, "[2]": {"test_system": "cisplatin-resistant A2780cis ovarian carcinoma cells", "conditions": "1 h incubation, 24 h recovery"}, "[3]": {"test_system": "MRC5 normal fibroblast cells", "experiment": "Photo/dark cytotoxicity (SRB assay)"}, "[4]": {"test_system": "A2780cis cells", "experiment": "Cell cycle analysis by flow cytometry", "assay_type": "cell-based, human", "conditions": "dark, equipotent photocytotoxic IC50 concentration, 1 h exposure + 1 h dark", "procedure": "(§1) All flow cytometry experiments were carried out using a Becton Dickinson FACScan flow cytometer in the School of Life Sciences at Warwick University. Typically, cells were seeded in 6-well plates using 1.5 × 10^6 cells/well. Experiments included 24 h of preincubation in drug-free media at 310 K in a CO2 humidified atmosphere, followed by 1 h of drug exposure under the same conditions. After this, samples were irradiated for 1 h. For comparison, the dark plates were kept in the incubator for another 1 h. Supernatants were removed, cells were washed with PBS. Samples were then collected after trypsinization, washed with PBS, and stained in the dark with a mixture of propidium iodide and RNase. After 30 min of staining, the cell samples were washed and set up for flow cytometry reading on the red channel FL-2.\n(§2) The effect of complexes 3 and 4 in the presence of light on the progression of the cell cycle was studied. Cells were exposed to prodrugs at equipotent photocytotoxic IC50 concentrations for 1 h in the dark and then irradiated for 1 h (465 nm, 4.8 mW/cm^2, 1 h). After 24 h of recovery, cells were stained in the dark with propidium iodide in the presence of RNase and then analyzed by flow cytometry."}, "[5]": {"test_system": "A2780 cells", "experiment": "Cell cycle analysis by flow cytometry", "assay_type": "cell-based, human", "conditions": "A2780, dark; equipotent photocytotoxic IC50 concentration, 1 h exposure + 1 h dark", "procedure": "as §1, §2"}, "[6]": {"test_system": "OE19 cells", "experiment": "Cell cycle analysis by flow cytometry", "assay_type": "cell-based, human", "conditions": "OE19, dark; equipotent photocytotoxic IC50 concentration, 1 h exposure + 1 h dark", "procedure": "as §1, §2"}, "[7]": {"test_system": "OE19 esophageal adenocarcinoma cells", "experiment": "Photo/dark cytotoxicity (SRB assay)", "conditions": "1 h incubation, 24 h recovery"}, "[8]": {"test_system": "A2780 cells", "experiment": "Pt accumulation in cancer cells (ICP-MS)", "assay_type": "cell-based, human", "conditions": "equipotent IC50 concentration, 1 h, in the dark"}, "[9]": {"test_system": "negatively supercoiled pSP73KB plasmid", "set-up": "method as in PMID 22420335", "conditions": "photoactivated, identical conditions; cited from earlier work"}, "[10]": {"test_system": "parental A2780 cells", "set-up": "method as in PMID 20677309", "conditions": "cited from earlier work"}, "[11]": {"test_system": "plasmid pUC19 linearized by EcoRI", "experiment": "Formation of DNA interstrand cross-links", "assay_type": "biochemical", "conditions": "irradiated with blue light 1 h + 23 h dark, 10 mM NaClO4, 310 K; rb 0.003 and 0.0006 (FM-190) or 0.00015 and 0.0003 (1, 4)", "procedure": "Solutions of the plasmid pUC19 linearized by EcoRI (50 μg/mL) were incubated with the Pt complex under irradiation conditions (for 1 h and subsequently incubated in the dark for an additional 23 h) at various ri values in NaClO4 (10 mM) at 310 K. Autoradiograms were recorded of denaturing 1% agarose gel of linearized DNA, which was 3′-end-labeled and nonmodified or modified by FM-190, 1, and 4 photoactivated by visible light.\nTherefore, we investigated the capability of irradiated 1 and 4 to form DNA interstrand cross-links as well. Plasmid pUC19 linearized by EcoRI (50 μg mL^–1) and the Pt complex were irradiated with blue light for 1 h and subsequently incubated in the dark for an additional 23 h in NaClO4 (10 mM) at 310 K. The plasmid was modified to the extent corresponding to the rb values of 0.003 and 0.0006 (in the case of FM-190) or 0.00015 and 0.0003 (in the case of 1 and 4) and analyzed by agarose gel electrophoresis under denaturing conditions (Figure 5C). Interstrand cross-linked DNA appears as the top band (marked as ICLs), migrating on the gel more slowly than single-stranded DNA (contained in the bottom bands and marked as ss). […] It is, therefore, reasonable to envisage that the treatment of DNA by irradiated dinuclear 1 or 4 results in the formation of trans GG interstrand DNA cross-links as in the case of the treatment with mononuclear complex FM-190."}, "[12]": {"test_system": "A2780 ovarian carcinoma cells", "experiment": "cells", "conditions": "Homo sapiens, A2780, light or radiation study"}, "[13]": {"test_system": "cisplatin-resistant A2780cis ovarian carcinoma cells", "experiment": "cells", "conditions": "Homo sapiens, light or radiation study"}, "[14]": {"conditions": "A2780, irrad, 1 h irradiation (465 nm, 4.8 mW/cm^2)"}, "[15]": {"conditions": "MRC5 normal cells, dark, 1 h incubation, 1 h dark, 24 h recovery"}, "[16]": {"conditions": "MRC5 normal cells, irrad, 1 h incubation, 1 h irradiation (465 nm), 24 h recovery"}}, "note": "Like-named read-outs stand apart in the source and are kept apart here. Marks after values point to notes of the source that are not given here.", "data": [{"compound": "[NH2][Pt]([NH2])([Cl])[Cl]", "note": "[CDDP, cisplatin]", "values": [{"measurement": "IC50", "setting": "[1]; A2780, dark, 1 h dark", "value": "> 100", "unit": "µM"}, {"measurement": "IC50", "setting": "[1]; [14]", "value": "> 100", "unit": "µM"}, {"measurement": "IC50", "setting": "[2]; dark, 1 h dark", "value": "> 100", "unit": "µM"}, {"measurement": "IC50", "setting": "[2]; irrad, 1 h irradiation (465 nm, 4.8 mW/cm^2)", "value": "> 100", "unit": "µM"}, {"measurement": "IC50", "setting": "[3]; [15]", "value": "> 100", "unit": "µM"}, {"measurement": "IC50", "setting": "[3]; [16]", "value": "> 100", "unit": "µM"}, {"measurement": "% Cell Population, G1 phase", "setting": "[4]", "value": "64.2±2.8", "unit": "%"}, {"measurement": "% Cell Population, G2/M phase", "setting": "[4]", "value": "22.0±0.4", "unit": "%"}, {"measurement": "% Cell Population, S phase", "setting": "[4]", "value": "13.8±2.4", "unit": "%"}, {"measurement": "% Cell Population, G1 phase", "setting": "[5]", "value": "32.1±0.5", "unit": "%"}, {"measurement": "% Cell Population, G2/M phase", "setting": "[5]", "value": "67.4±0.9", "unit": "%"}, {"measurement": "% Cell Population, S phase", "setting": "[5]", "value": "0.4±0.5", "unit": "%"}, {"measurement": "% Cell Population, G1 phase", "setting": "[6]", "value": "36.3±1.2", "unit": "%"}, {"measurement": "% Cell Population, G2/M phase", "setting": "[6]", "value": "45.5±0.9", "unit": "%"}, {"measurement": "% Cell Population, S phase", "setting": "[6]", "value": "18.2±0.3", "unit": "%"}, {"measurement": "IC50", "setting": "[7]; OE19, dark, 1 h dark", "value": "> 100", "unit": "µM"}, {"measurement": "IC50", "setting": "[7]; OE19, irrad, 1 h irradiation (465 nm, 4.8 mW/cm^2)", "value": "> 100", "unit": "µM"}]}, {"compound": "trans,trans,trans-[Pt(N3)2(OH)2(py)2] [FM-190]", "values": [{"measurement": "PI (photocytotoxicity index)", "setting": "[1]; A2780, dark vs irradiated (465 nm)", "value": ">14.0"}, {"measurement": "IC50", "setting": "[1]; A2780, dark, 1 h dark", "value": "> 100", "unit": "µM"}, {"measurement": "IC50", "setting": "[1]; [14]", "value": "7.1 ± 0.4", "unit": "µM"}, {"measurement": "platinum accumulation", "setting": "[8]", "value": "0.8 ± 0.2 ^b ng/10^6 cells"}, {"measurement": "IC50", "setting": "[3]; [15]", "value": "> 100", "unit": "µM"}, {"measurement": "IC50", "setting": "[3]; [16]", "value": "> 100", "unit": "µM"}, {"measurement": "DNA unwinding angle", "setting": "[9]", "value": "28 ± 4", "unit": "°"}, {"measurement": "toxicity to parental A2780 compared with A2780cis", "setting": "[10]; irradiation with UVA (365 nm)", "value": 10, "unit": "times"}, {"measurement": "IC50", "setting": "[10]; parental A2780, irradiation with UVA (365 nm)", "value": 1.4, "unit": "µM"}, {"measurement": "frequencies of interstrand cross-linking", "setting": "[11]", "value": "12.5 ± 0.5"}]}, {"compound": "CN(C)CCCN1c2ccccc2Sc2ccc(Cl)cc21", "note": "[CPZ, chlorpromazine]", "values": [{"measurement": "IC50", "setting": "[3]; Homo sapiens, MRC5", "value": "> 100", "unit": "µM"}, {"measurement": "IC50", "setting": "[3]; Homo sapiens, MRC5, light or radiation study", "value": "> 50", "unit": "µM"}, {"measurement": "IC50", "setting": "[12]", "value": "6 ± 0.3", "unit": "µM"}, {"measurement": "IC50", "setting": "[13]", "value": "6 ± 0.3", "unit": "µM"}]}]}
